Bridge positions count the residues as written; N and C are the ends. Ends that are not written are not given here.
How the values were obtained:
[1] = test system: seabream postvitellogenic ovarian explants; assay: Avp production by ovarian explants in vitro (Avp ELISA); format: cell-based, gilthead seabream (Sparus aurata)
Description: These observations would be compatible with a role of Avp regulating the intracellular trafficking of Aqp1ab1 and Aqp1ab2 in maturing oocytes, as observed in surrogate amphibian oocytes. […] To test this hypothesis, we carried out in vitro experiments in which the production of Avp by postvitellogenic ovarian explants in response to piscine single-chain recombinant […] evaluated by a custom made Avp enzyme-linked immunosorbent assay (ELISA) ( Supplementary Figure S3 ). To investigate the specificity of the rLh potential regulation, in these experiments we also tested the effect of single-chain recombinant follicle-stimulating hormone (rFsh). […] Pieces of the ovary at the […] stage (400-500 mg) were dissected from naturally spawning seabream females and placed in Petri dishes containing 75% Leivovitz L-15 culture medium with L-glutamine and 100 μg/ml gentamicin at pH 7.5. […] Control groups were treated with an equivalent volume of the cell culture medium used for […] production, or with 0.5% ethanol. After incubation, explants were frozen and stored at -80°C until Avp extraction and determination by ELISA. To determine the Avp levels in ovarian explants incubated in vitro, a competitive ELISA was developed using the specific anti-Avp antiserum and the synthetic Avp to create the standard curve ( Supplementary Figure S3 ). For this, polystyrene ELISA microtiter plates (F96 Maxisorp Nunc Immuno Plates; […] Ovarian explants were homogenized on ice with a glass dounce tissue homogenizer in water containing 0.25% glacial acetic acid in a proportion of 500 μl/100 mg tissue. After incubation of the homogenate at 100°C for 5 min, the samples were centrifuged a 10,000 × g for 5 min at 4°C, and the supernatant recovered in a new tube. […] Absorbance was read at 450 nm with a VICTOR3TM Multilabel Plate Reader (PerkinElmer, Inc.). […] The intra-assay coefficient of variation was 4.64% (calculated by assaying eight replicates of an ovarian sample at 50% of maximum binding on the same plate), whereas the inter-assay coefficient of variation was 8.35%.

[2] = test system: X. laevis oocytes expressing the seabream Avpr1aa and Aqp1aa, Aqp1ab1 or Aqp1ab2 plus YwhazLb; assay: Swelling assay (osmotic water permeability, P f) of X. laevis oocytes expressing Avpr1aa and TSA1C aquaporins; format: cell-based
[3] = test system: seabream ovarian follicles; assay: In vitro incubation of isolated seabream ovarian follicles (immunostaining, 3H2O uptake, co-immunoprecipitation); format: cell-based, gilthead seabream (Sparus aurata); conditions: for Avp-mediated increase in phosphorylation of Aqp1ab1 and Aqp1ab2 and binding of Aqp1ab2 to YwhazLb: 10 µM inhibitor plus 10 µM Avp; for Avp-induced differential localization of Aqp1ab1 and Aqp1ab2 in the oocyte microvilli: 10 µM inhibitor preincubated prior to 10 µM Avp
Procedure: To investigate the physiological significance of the Avp regulation of the […] channel trafficking in seabream oocytes, we determined the dynamics of the subcellular localization of endogenous Aqp1aa, Aqp1ab1, and Aqp1ab2, and their interactions with YwhazLa and -zLb proteins, after Avp treatment in vitro, using the Aqp1ab1- and Aqp1ab2-specific antisera and commercial mammalian YWHAZ antibodies specific for seabream YwhazLa/b or -zLb ([12]). For this, we incubated isolated seabream vitellogenic ovarian follicles with Avp, in the presence or absence of the seabream Avpr1aa and Avpr2aa antagonist TLV or the PKA inhibitor H89, while control follicles were exposed to DMSO vehicle alone ( Figure 8 ).
In other experiments, groups of fully-grown postvitellogenic ovarian follicles (n = 10), manually isolated from the ovary, were incubated with 10 µM Avp in the same culture medium as above, in the presence or absence of 10 µM of the receptor antagonist TLV, or with 0.1% DMSO (controls) for 6 h at 18°C. After incubation, follicles were fixed for immunofluorescence microscopy, frozen in liquid nitrogen and stored at -80°C for further protein extraction, or processed for water uptake assays using radiolabeled water as previously described ([12]).
Isolated ovarian follicles were processed for immunofluorescence microscopy as previously described ([65], [66]). Control sections were incubated with antibodies (1:400 dilution) preadsorbed with the corresponding peptides used for immunization (for aquaporin antibodies), or with the Avp or Oxt synthetic peptides. Secondary antibodies were sheep anti-rabbit IgG Cy3 (Merck #C2306) or goat anti-chicken IgY Alexa Fluor 488 (Invitrogen #A11039) at a 1:1,000 dilution. Sections were counterstained with DAPI (1:10,000), and mounted with Fluoromount™ Aqueous Mounting Medium (Merck #F4680). Immunofluorescence was observed and documented with a Zeiss Axio Imager Z1/Apotome fluorescent microscope (Carl Zeiss Corp.). Changes in Aqp1ab1 and Aqp1ab2 in the oocyte plasma membrane after Avp treatment were evaluated using the ImageJ software v.1.52o (https://imagej.nih.gov/ij/) as previously described ([12]).
X. laevis oocytes and seabream follicles (n = 10) were homogenized in the lysis buffer from the Pierce™ Crosslink Magnetic IP/Co-IP Kit (Pierce Thermo Fisher Scientific, #88805) with a bouncer on ice, and centrifuged at 14,000 × g for 1 min. An aliquot (10%) of the protein extract was collected as “input” and mixed with 2 × Laemmli sample buffer, whereas the remaining extract was incubated overnight at 4°C under constant agitation with magnetic beads previously coated with anti-Aqp1ab1 or anti-Aqp1ab2 antibodies. For rabbit primary antibodies, the immunoprecipitation was carried out using the kit indicated above, and final eluted proteins in 50 µl of elution buffer were mixed with 4 × Laemmli sample buffer supplemented with protease and phosphatase inhibitors. For chicken antibodies, the immunoprecipitation was performed using Dynabeads™ M-280 Tosylactivated (Invitrogen Thermo Fisher Scientific, #14203) following the manufacturer’s instructions. The input and immunoprecipitated samples were immunoblotted as indicated above.

[4] = test system: X. laevis oocytes expressing the seabream Avpr2aa and Aqp1aa, Aqp1ab1 or Aqp1ab2 plus YwhazLb; assay: Swelling assay (osmotic water permeability, P f) of X. laevis oocytes expressing Avpr2aa and TSA1C aquaporins; format: cell-based
seabream Avpr2aa = assay: Activation of seabream Avpr2aa in transfected HEK293T cells (pCRE-luc / pSRE-luc reporters, Fluo-4 AM Ca2+); format: cell-based, gilthead seabream (Sparus aurata); conditions: for effect on Avpr2aa activation: antagonist 10^-12 to 10^-5 M before 10^-8 M Avp
seabream Avpr1aa = seabream Avpr1aa (Sparus aurata, UniProt R9X0I6); assay: Activation of seabream Avpr1aa in transfected HEK293T cells (pCRE-luc / pSRE-luc reporters, Fluo-4 AM Ca2+); format: cell-based, gilthead seabream (Sparus aurata); conditions: for IC50: antagonist 1 h before 10^-8 M Avp, HEK293T, read-out: IC50, inhibition of Avpr1aa activation
seabream Oxtrb = seabream Oxtrb (Sparus aurata, UniProt R9WVY7); assay: Activation of seabream Oxtrb in transfected HEK293T cells (pCRE-luc / pSRE-luc reporters, Fluo-4 AM Ca2+); format: cell-based, gilthead seabream (Sparus aurata); conditions: for effect on Oxtrb activation: antagonist 10^-12 to 10^-5 M before 10^-8 M Oxt
[5] = biological target: seabream oxytocin receptor Oxtrb (gilthead seabream (Sparus aurata))
[6] = biological target: seabream arginine vasopressin receptor Avpr1aa (gilthead seabream (Sparus aurata))
[7] = biological target: seabream arginine vasopressin receptor Avpr1aa (gilthead seabream (Sparus aurata)); remark: listed apart in the source
[8] = 10 µM Avp, co-immunoprecipitation and immunoblotting

## C[C@@H](O)[C@@]1(O)CC[C@H]2[C@@H]3CCC4=CC(=O)CC[C@]4(C)[C@H]3CC[C@@]21C [17,20β-P, 17α,20β-dihydroxypregn-4-en-3-one]
[1]; 0.1 µg/ml, ~20 h
  increase in Avp synthesis in ovarian explants: 3 fold

## CN1CCCC1CCn1cc(C2=C(c3c[nH]c4ccccc34)C(=O)NC2=O)c2ccccc21 (centres unmarked) [Bim-II, bisindolylmaleimide II]
[2]; Avpr1aa+Aqp1aa oocytes preincubated with 10 µM inhibitor 1 h before 10 µM Avp
  Avp-induced inhibition of P f: prevented

## O=S(=O)(NCCNC/C=C/c1ccc(Br)cc1)c1cccc2cnccc12 [H89]
[3]
  Avp-mediated increase in phosphorylation of Aqp1ab1 and Aqp1ab2 and binding of Aqp1ab2 to YwhazLb: blocked
  Avp-induced differential localization of Aqp1ab1 and Aqp1ab2 in the oocyte microvilli: prevented
[3]; not told
  water permeability of follicles (3H2O uptake) in the presence of Avp plus inhibitor: reduced
[4]
  positive effect of Avp on plasma membrane trafficking of wild-type Aqp1ab1 and Aqp1ab1-S156A: equally abolished
[4]; Avpr2aa oocytes, 10 µM inhibitor 1 h before 10 µM Avp
  Avp-induced insertion of Aqp1ab1 or Aqp1ab2 into the oocyte plasma membrane / P f increase: prevented

## COc1cc(OC2CCN(C(C)=O)CC2)ccc1C(=O)N1CCC(N2C(=O)OCc3ccccc32)CC1 [L-371,257, 1-(1-[4-[(N-acetyl-4-piperidinyl)oxy]-2-methoxybenzoyl]piperidin-4-yl)-4H-3,1-benzoxazin-2(1H)-one]
Seabream Avpr2aa
  effect on Avpr2aa activation: no effect

## C=C[C@]12CCC(=O)C=C1CC[C@H]1[C@@H]3CC[C@H](C(C)=O)[C@@]3(C)CC[C@@H]12 [OD 02-0, 10-ethenyl-19-norprogesterone]
[1]; 10 µM, ~20 h
  Avp synthesis in ovarian explants in the absence of 17,20β-P: not reproduced

## CC#C[C@]1(O)CC[C@H]2[C@@H]3CCC4=CC(=O)CCC4=C3[C@@H](c3ccc(N(C)C)cc3)C[C@@]21C [RU486]
[1]; 100 µM inhibitor with 0.1 µg/ml 17,20β-P
  17,20β-P-induced increase in Avp synthesis: completely abolished

## COc1ccc(S(=O)(=O)N2c3ccc(Cl)cc3[C@](O)(c3ccccc3Cl)[C@@H]2C(=O)N2CCC[C@H]2C(N)=O)cc1OC [SR49059]
Seabream Avpr1aa
  IC50: ~1 nM
Seabream Avpr2aa
  effect on Avpr2aa activation: inhibited
Seabream Oxtrb
  effect on Oxtrb activation: not affected

## Cc1ccccc1C(=O)Nc1ccc(C(=O)N2CCCC(O)c3cc(Cl)ccc32)c(C)c1 (centres unmarked) [TLV, 7-Chloro-5-hydroxy-1-[2-methyl-4-(2-methylbenzoyl-amino)benzoyl]-2,3,4,5-tetrahydro-1H-1-benzazepine]
Seabream Avpr1aa
  IC50: ~1 nM
[3]; 10 µM Avp plus 10 µM inhibitor
  water permeability of follicles (3H2O uptake) in the presence of Avp plus inhibitor: reduced
[3]
  Avp-mediated increase in phosphorylation of Aqp1ab1 and Aqp1ab2 and binding of Aqp1ab2 to YwhazLb: blocked
  Avp-induced differential localization of Aqp1ab1 and Aqp1ab2 in the oocyte microvilli: prevented
Seabream Avpr2aa
  effect on Avpr2aa activation: inhibited
Seabream Avpr2aa; antagonist before 10^-8 M Avp
  potency at blocking Avpr2aa relative to SR49059: ~ 10 times more potent
Seabream Oxtrb
  effect on Oxtrb activation: not affected

## CYIQNCPRG-NH2 (ends and bridges not checked) [Avp]
Seabream Avpr1aa; HEK293T cells expressing Avpr1aa
  pCRE-mediated luciferase activity (cAMP): did not induce measurable increases
Seabream Avpr1aa; HEK293T cells expressing Avpr1aa, 10^-12 to 10^-5 M, 3 h
  pSRE-induced luciferase activity (PKC activation): concentration-dependent increase
Seabream Avpr1aa; HEK293T cells expressing Avpr1aa, Fluo-4 AM
  intracellular Ca2+ concentration ([Ca2+]i): concentration-dependent increase
[3]; 10 µM Avp, 6 h, 18°C
  meiotic maturation or oocyte hydration: did not induce
[3]; [8]
  phosphorylation of Aqp1ab1: more phosphorylated
  phosphorylation of Aqp1ab2: increased
[3]; 10 µM Avp, immunofluorescence
  localization of Aqp1aa (follicular epithelium): did not appear to change
  localization of Aqp1ab1 immunoreactivity: more concentrated in the most distal part of the microvilli
  localization of Aqp1ab2 channel: localized in a more basal region of the microvilli
[3]; not told
  water permeability of follicles (3H2O uptake): higher
[4]; oocytes co-expressing Avpr2aa and Aqp1aa, 10 µM Avp
  P f: did not change
[4]; oocytes expressing Avpr2aa + Aqp1ab1, 10 µM Avp
  increase in P f: ~ 2 fold
[4]; oocytes expressing Avpr2aa + Aqp1ab2+YwhazLb, without FSK pretreatment, 10 µM Avp
  increase in P f: ~ 4 fold
Seabream Avpr2aa; Avp on Avpr2aa, HEK293T, read-out: approximate EC50 on cognate receptor
  EC50: ~10 nM
Seabream Avpr2aa; HEK293T cells expressing Avpr2aa
  PKC activation (pSRE-luc): not activated
Seabream Avpr2aa; HEK293T cells expressing Avpr2aa, 10^-12 to 10^-5 M
  pCRE-induced luciferase activity (cAMP): potent dose-dependent response
Seabream Avpr2aa; HEK293T cells expressing Avpr2aa, Fluo-4 AM
  intracellular Ca2+ concentration ([Ca2+]i): not affected
[2]; oocytes expressing Avpr1aa + Aqp1aa, 10 µM Avp, 3 h
  reduction of P f: 80%
[2]; oocytes expressing Avpr1aa + Aqp1ab2 (+YwhazLb), 10 µM Avp, 10 µM FSK
  oocyte P f triggered by FSK exposure: did not affect
Seabream Oxtrb; HEK293T cells expressing Oxtrb, Fluo-4 AM
  intracellular Ca2+ concentration ([Ca2+]i): only a slight increase

## CYISNCPIG-NH2 (disulfide 1-6; ends not checked) [oxytocin (Oxt, formerly isotocin), synthetic nonapeptide]
[5]
  EC50 of receptor activation (pSRE-luciferase activity and [Ca2+]i) in HEK293T cells expressing Oxtrb, Oxt 10^-12 to 10^-5 M: 1e-08 M
[6]
  EC50 of cross-activation of Avpr1aa by Oxt in HEK293T cells (Figure 4D), against that of Avp (fold (EC50 of Oxt over EC50 of Avp)): 10

## CYIQNCPRG-NH2 (disulfide 1-6; ends not checked) [arginine vasopressin (Avp, formerly vasotocin), synthetic nonapeptide]
[7]
  EC50 of receptor activation (pSRE-luciferase activity and [Ca2+]i) in HEK293T cells expressing Avpr1aa, Avp 10^-12 to 10^-5 M: 1e-08 M
[6]; scale: fold
  EC50 of PKC (pSRE-luciferase) activation and [Ca2+]i increase in HEK293T cells, Avp on Avpr1aa against Oxt on Oxtrb: 10

— PMC10454913, “Neurohypophysial and paracrine vasopressinergic signaling regulates aquaporin trafficking to hydrate marine teleost oocytes” (Frontiers in Endocrinology, 2023)
